From patent US9260481B2, “Peptide derivatives as antibiotics” (priority 2011, dated 2016)
≈ marks a conversion by molar mass, not a printed value.

Experiments:
S. aureus ATCC 25923 = assay type: cell-based, Staphylococcus aureus; settings: for MIC antibiotic alone: S. aureus ATCC 25923, checkerboard, ~10^4 CFU/mL
Source text: (§1) Vancomycin, rifampicin, kanamycin, gentamicin, ampicillin, ciprofloxacin and tetracycline (Sigma-Aldrich) were provided as standard powders by the manufacturers.

P. aeruginosa = test: Resistance profile of multiresistant clinical isolates; assay type: cell-based, Pseudomonas aeruginosa; design: key: R: resistant; S: sensitive; I: intermediate
S. aureus = test: as above; assay type: cell-based, Staphylococcus aureus; design: key: R: resistant; S: sensitive; I: intermediate
K. pneumoniae ATCC 43816 = assay type: cell-based, Klebsiella pneumoniae; settings: for MIC antibiotic alone: K. pneumoniae ATCC 43816, checkerboard, ~10^4 CFU/mL; for Combinations Odilomycin/antibiotic: Odilomycin concentration: Odilomycin A part of the inhibitory combination with the labelled antibiotic
Source text: as §1

[1] = tested on: S. aureus Smith ATCC 13709; test: Acute lethal infection in mice; assay type: in vivo, ICR mice
Description: Female ICR mice ordered from Harlan Laboratories (Indianapolis, Ind.) weighing 19-21 g were used in experiments of acute lethal infection. Mice were fully immunocompetent. Infection was induced by inoculating intraperitoneally in mice a bacterial suspension of S. aureus Smith ATCC 13709. The bacterial challenges (ca 5 log10 CFU/mouse) were given suspended in 0.5 mL of 20% hog mucin. […] Mortality was tracked out to 5 days post challenge. Animals that remained surviving at the end of the study were humanely euthanized.

P. aeruginosa ATCC 27853 = test: Acute lethal infection in mice; assay type: in vivo, BALB/c mice; settings: P. aeruginosa infection; Tobramycin […] IP
Description: Female BALB/c mice ordered from Harlan Laboratories (Indianapolis, Ind.) weighing 19-21 g were used in experiments of acute lethal infection. Mice were fully immunocompetent. Infection was induced by inoculating intraperitoneally in mice a bacterial suspension of P. aeruginosa ATCC 27853. The bacterial challenges (8.6 log10 CFU/mouse) were given suspended in 0.1 mL sterile saline. Treatments were administered once 1 hour after challenge via IV injection (Tobramycin was administered via IP injection immediately after challenge) (Table 13). Mortality was tracked out to 2 days post challenge. Animals that remained surviving at the end of the study were humanely euthanized.

Staphylococcus aureus = test: microbe, parasite or virus in culture; settings: Staphylococcus aureus
Description: The minimal inhibitory concentrations (MIC) were determined according to the Clinical and Laboratory Standards Institute (CLSI) conditions guidelines detailed in Table 7. Assays were performed in triplicate.
Preparation of Inocula. Five to 10 well-isolated colonies were picked and resuspended in 3 ml sterile saline. The inoculum was re-suspended by vigorous shaking on a vortex mixer for 15 s. Turbidity was adjusted to McFarland standard 0.5 ([…]). The inoculum was further diluted in the appropriate media (Table 7) to give a final inoculum in each well of ˜2-8×10^5 CFU/ml.
Addition of Test Article. Stock solutions of Odilomycin A or comparator were diluted in the appropriate media to give a maximum starting concentration of 50 μg/mL in the assay. 50 μL of medium was dispensed into each well in columns two to 12 of a 96 well plate. 100 μL of the appropriate test compound solution (100 μg/mL) was dispensed into each well in column one. In the case of M. catarrhalis, M. haemolytica and P. multocida these values were doubled (a final assay volume of 200 μL was used). […] Columns 11 and 12 served as positive (no drug or test article, inoculum added), and negative (no drug, test article, or inoculum added) growth controls respectively.
Addition of Bacterial Strains. 50 μL of each inoculum suspension was added to the appropriate wells, resulting in a final volume of 100 μL consisting of 50 μL diluted compound or diluents, and 50 μL of inoculum or broth alone.

[2] = P. aeruginosa multiresistant clinical isolate 5618
[3] = P. aeruginosa multiresistant clinical isolate 35170
[4] = P. aeruginosa multiresistant clinical isolate 42162
[5] = P. aeruginosa multiresistant clinical isolate 401681
[6] = P. aeruginosa multiresistant clinical isolate 512232
[7] = S. aureus multiresistant clinical isolate 16666
[8] = S. aureus multiresistant clinical isolate 20364
[9] = S. aureus multiresistant clinical isolate 20681
[10] = S. aureus multiresistant clinical isolate 21840
[11] = S. aureus multiresistant clinical isolate 23305
[12] = mice, S. aureus 5 log10 CFU/mouse IP, Linezolid 12.5 mg/kg PO at 0 hr, n=6

Molecule	MIC antibiotic alone (S. aureus ATCC 25923) [µg/mL]	Susceptibility of isolate to antibacterial (R/S/I) (P. aeruginosa; [2])	Susceptibility of isolate to antibacterial (R/S/I) (P. aeruginosa; [3])	Susceptibility of isolate to antibacterial (R/S/I) (P. aeruginosa; [4])	Susceptibility of isolate to antibacterial (R/S/I) (P. aeruginosa; [5])	Susceptibility of isolate to antibacterial (R/S/I) (P. aeruginosa; [6])	Susceptibility of isolate to antibacterial (R/S/I) (S. aureus; [7])	Susceptibility of isolate to antibacterial (R/S/I) (S. aureus; [8])	Susceptibility of isolate to antibacterial (R/S/I) (S. aureus; [9])	Susceptibility of isolate to antibacterial (R/S/I) (S. aureus; [10])	Susceptibility of isolate to antibacterial (R/S/I) (S. aureus; [11])	also measured
CC1(C)S[C@@H]2[C@H](NC(=O)[C@H](N)c3ccccc3)C(=O)N2[C@H]1C(=O)O [Ampicillin]	0.15	–	–	–	–	–	–	–	–	–	–	–
C[C@H]1[C@H](NC(=O)/C(=N\OC(C)(C)C(=O)O)c2csc(N)n2)C(=O)N1S(=O)(=O)O [Aztreonam]	–	S	R	I	I	R	–	–	–	–	–	–
CO[C@@]1(NC(=O)Cc2cccs2)C(=O)N2C(C(=O)O)=C(COC(N)=O)CS[C@@H]21 [Cefoxitin]	–	–	–	–	–	–	R	R	R	S	I	–
O=C(O)c1cn(C2CC2)c2cc(N3CCNCC3)c(F)cc2c1=O [Ciprofloxacin, ciprofloxacin]	0.31	–	–	–	–	–	–	–	–	–	–	–
CCC[C@@H]1C[C@@H](C(=O)N[C@@H]([C@H]2O[C@H](SC)[C@H](O)[C@@H](O)[C@H]2O)[C@H](C)Cl)N(C)C1 [Clindamycin]	–	R	R	R	R	R	R	R	S	S	R	–
CC[C@H]1OC(=O)[C@H](C)[C@@H](O[C@H]2C[C@@](C)(OC)[C@@H](O)[C@H](C)O2)[C@H](C)[C@@H](O[C@@H]2O[C@H](C)C[C@H](N(C)C)[C@H]2O)[C@](C)(O)C[C@@H](C)C(=O)[C@H](C)[C@@H](O)[C@]1(C)O [Erythromycin]	–	R	R	R	R	R	R	R	S	S	R	–
C[C@@H](O)[C@H]1C(=O)N2C(C(=O)O)=C(SCCN=CN)C[C@H]12 [Imipenem]	–	R	R	R	S	R	–	–	–	–	–	–
NC[C@H]1O[C@H](O[C@H]2[C@H](O)[C@@H](O[C@H]3O[C@H](CO)[C@@H](O)[C@H](N)[C@H]3O)[C@H](N)C[C@@H]2N)[C@H](O)[C@@H](O)[C@@H]1O [Kanamycin]	0.62	–	–	–	–	–	–	–	–	–	–	MIC antibiotic alone (K. pneumoniae ATCC 43816): 1.56 µg/mL; Combinations Odilomycin/antibiotic: Odilomycin concentration (K. pneumoniae ATCC 43816; K. pneumoniae ATCC 43816): 6.25 µg/mL; Combinations Odilomycin/antibiotic: antibiotic concentration (K. pneumoniae ATCC 43816; K. pneumoniae ATCC 43816, antibiotic part of the inhibitory combination with Odilomycin A): 0.39 µg/mL
CC(=O)NC[C@H]1CN(c2ccc(N3CCOCC3)c(F)c2)C(=O)O1 [Linezolid, reference compound]	–	–	–	–	–	–	S	S	S	S	S	Survival of all treated mice ([1]; S. aureus infection, linezolid 12.5 mg/kg PO): survived up to 5 days after infection; Animal deaths Day 0 [1, 12]: 0; Animal deaths Day 1 [1, 12]: 0; Animal deaths Day 2 [1, 12]: 0; Animal deaths Day 3 [1, 12]: 0; Animal deaths Day 4 [1, 12]: 0; Animal deaths Day 5 [1, 12]: 0
CO[C@H]1/C=C/O[C@@]2(C)Oc3c(C)c(O)c4c(O)c(c(/C=N/N5CCN(C)CC5)c(O)c4c3C2=O)NC(=O)/C(C)=C\C=C\[C@H](C)[C@H](O)[C@@H](C)[C@@H](O)[C@@H](C)[C@H](OC(C)=O)[C@@H]1C [Rifampicin]	0.012	–	–	–	–	–	–	–	–	–	–	–
CN(C)[C@@H]1C(O)=C(C(N)=O)C(=O)[C@@]2(O)C(O)=C3C(=O)c4c(O)cccc4[C@@](C)(O)[C@H]3C[C@@H]12 [Tetracycline]	0.78	–	–	–	–	–	–	–	–	–	–	–
NC[C@H]1O[C@H](O[C@H]2[C@H](O)[C@@H](O[C@H]3O[C@H](CO)[C@@H](O)[C@H](N)[C@H]3O)[C@H](N)C[C@@H]2N)[C@H](N)C[C@@H]1O [Tobramycin, reference compound]	–	–	–	–	–	–	–	–	–	–	–	Survival of all treated mice (P. aeruginosa ATCC 27853): survived up to 5 days after infection
CN[C@H](CC(C)C)C(=O)N[C@H]1C(=O)N[C@@H](CC(N)=O)C(=O)N[C@H]2C(=O)N[C@H]3C(=O)N[C@H](C(=O)N[C@H](C(=O)O)c4cc(O)cc(O)c4-c4cc3ccc4O)[C@H](O)c3ccc(c(Cl)c3)Oc3cc2cc(c3O[C@@H]2O[C@H](CO)[C@@H](O)[C@H](O)[C@H]2O[C@H]2C[C@](C)(N)[C@H](O)[C@H](C)O2)Oc2ccc(cc2Cl)[C@H]1O [Vancomycin, vancomycin]	0.78	–	–	–	–	–	S	S	S	S	S	MIC (Staphylococcus aureus; ATCC13709): 0.78 µg/mL (≈ 0.538 µM); MIC (Staphylococcus aureus; ATCC25923): 0.78 µg/mL (≈ 0.538 µM); MIC (Staphylococcus aureus; ATCCBAA1556 / USA300): 0.78 µg/mL (≈ 0.538 µM)
Gentamicin	0.078	R	R	R	R	R	R	S	S	S	R	MIC antibiotic alone (K. pneumoniae ATCC 43816): 0.39 µg/mL; Combinations Odilomycin/antibiotic: Odilomycin concentration (K. pneumoniae ATCC 43816; K. pneumoniae ATCC 43816): 3.12 µg/mL; Synergy with Odilomycin A (K. pneumoniae ATCC 43816; K. pneumoniae ATCC 43816, labelled antibiotic combined with Odilomycin A): synergistic interaction; Combinations Odilomycin/antibiotic: Odilomycin concentration (S. aureus ATCC 25923; S. aureus ATCC 25923, Odilomycin A part of the inhibitory combination with the labelled antibiotic): 0.19 µg/mL; Combinations Odilomycin/antibiotic: antibiotic concentration (S. aureus ATCC 25923; S. aureus ATCC 25923, antibiotic part of the inhibitory combination with Odilomycin A): 0.039 µg/mL; Synergy with Odilomycin A (S. aureus ATCC 25923; S. aureus ATCC 25923, labelled antibiotic combined with Odilomycin A): synergistic interaction
